Measured values published in patent US20080182834A1, “Multi-Nuclear Metal Complexes Partially Encapsulated by Cucurbit[7-12]Urils” (NEWSOUTH INNOVATIONS PTY LIMITED, priority 2004, published 2008).

Legend:
[1] = test system: L1210/DDP cisplatin resistant cells; experiment: In vitro cytotoxic activity against cisplatin resistant L1210/DDP cells; type: cell-based, murine; settings: concentration required to inhibit cell growth by 50%
[2] = test system: L1210 murine leukaemia cells; experiment: In vitro cytotoxic activity against L1210 murine leukaemia cells; type: cell-based; settings: concentration required to inhibit cell growth by 50%

| Substance | IC50 [1] | IC50 [2] |
| --- | --- | --- |
| {trans-diamminebis{trans-diamminechloro(μ-1,6-hexanediamine)platinum(II)}platinum(II)}nitrate [BBR3464] | 24.5 nM | 57 nM |
| {trans-diamminechloro(μ-dipyrazolylmethane)platinum(II)}chloride [Di-Pt] | 8800 nM | 3800 nM |
| {trans-diamminechloro(μ-spermidine)platinum(II)}chloride [BBR3571] | 7.5 nM | 11.5 nM |
